The subject of data set [1] is T-47D human breast cancer cells. Description: cells. The conditions noted are these: for Selectivity Index (SI), T-47D: ratio of IC50 for healthy (MCF-10A) and T-47D cells. It counts as cell-based.
For data set [2], the system named is MCF-10A non-tumor mammary epithelial cell line. Description: in vitro. It counts as cell-based, human.
Data set [3] concerns human erythrocytes. Put plainly: Hemolytic activity against human erythrocytes. The class given is cell-based. The following applies: for ED50, Erythrocytes (hemolytic activity): 1 h at 37 °C. As to the method: A total of 450 g of human blood (B(III) Rh+) was used to obtain erythrocytes by centrifuging three times for 5 min with phosphate-buffered saline (PBS) (pH 7.4) at 4 °C on a centrifuge LABOFUGE 400R (Heraeus, Hanau, Germany). Ice-cold PBS (pH 7.4) was used for resuspension of erythrocyte residue to a final optical density of 1.5 at 700 nm. Then, 20 µL of tested compound solutions or control (cucumarioside A0-1 [15]) were added to 180 µL of erythrocyte suspension in V-bottom 96-well plates and incubated for 1 h at 37 °C. After centrifugation (900 g, 10 min, laboratory centrifuge LMC-3000 (Biosan, Riga, Latvia)), 100 µL of supernatant was transferred into new flat plates. The values of erythrocyte lysis were measured on microplate photometer Multiskan FC (Thermo Fisher Scientific, Waltham, MA, USA) at λ = 570 nm as hemoglobin concentration in supernatant. […] All the experiments were carried out in triple repetitions, p < 0.05.

The subject of data set [4] is MCF-7 human breast cancer cells. Put plainly: cells. The class given is cell-based. The conditions noted are these: for Selectivity Index (SI), MCF-7: ratio of IC50 for healthy (MCF-10A) and MCF-7 cells.
In data set [5] the test system is MDA-MB-231 triple-negative breast cancer cells. Put plainly: cells. The following applies: for Selectivity Index (SI), MDA-MB-231: ratio of IC50 for healthy (MCF-10A) and MDA-MB-231 cells. The class given is cell-based, human.
Data set [6] can be described thus: in vitro. It counts as cell-based, human. The conditions noted are these: human.
The mark [7] stands for this setting: MTT assay, T-47D, read-out: Cytotoxicity, IC50, T-47D.
The mark [8] stands for this setting: MTT assay, MCF-10A, read-out: Cytotoxicity, IC50, MCF-10A.
The mark [9] stands for this setting: MTT assay, MCF-7, read-out: Cytotoxicity, IC50, MCF-7.
Setting [10] is: MTT assay, MDA-MB-231, read-out: Cytotoxicity, IC50, MDA-MB-231.

Several values for one entry are separate records, joined by “and”; a condition that tells them apart may be missing. Equal entries are not always repeated. Structures can show the parent of a compound that is named as a salt. Where two headings read alike, the source gives them in different places.
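For Cytotoxicity, IC50, MCF-7 in this document: IC50 values, including those behind the selectivity ratio, derive from formazan absorbance at 570 nm, tested in triplicate.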
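For Cytotoxicity, IC50, T-47D in this document: cell viability read as absorbance of formazan dye at 570 nm, each experiment run in triplicate.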
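For Selectivity Index (SI), MCF-7 in this document: IC50 values, including those behind the selectivity ratio, derive from formazan absorbance at 570 nm, tested in triplicate.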
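For Selectivity Index (SI), T-47D in this document: cell viability read as absorbance of formazan dye at 570 nm, each experiment run in triplicate.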

As for `C=C(C)CCC[C@]1(C)OC(=O)C23CC=C4[C@@H](CC[C@H]5C(C)(C)[C@@H](O[C@@H]6OC[C@@H](O[C@@H]7O[C@H](CO)[C@@H](O)[C@H](O[C@@H]8O[C@H](CO)[C@@H](O)[C@H](OC)[C@H]8O)[C@H]7O)[C@H](O)[C@H]6O[C@@H]6O[C@H](C)[C@@H](O[C@@H]7O[C@H](CO)[C@@H](O)[C@H](O[C@@H]8O[C@H](CO)[C@@H](O)[C@H](OC)[C@H]8O)[C@H]7O)[C@H](O)[C@H]6O)CC[C@]45C)[C@]2(C)CC(=O)[C@@H]31` (stereo partly drawn) [Cladoloside M1 (35), cladoloside M1], the 50% inhibitory concentration (IC50) in data set [1] (setting [7]) was 17.1 ± 1.52 µM; in data set [2] (setting [8]), 9.81 ± 0.86 µM; in data set [4] (setting [9]), more than 20 µM; in data set [5] (setting [10]), 5.05 ± 0.38 µM. In data set [1], the “Selectivity Index (SI), T-47D” value was determined as 0.57. Also, the “ED50, Erythrocytes (hemolytic activity)” value in data set [3] came out at 0.08 ± 0.01 µM. The entries for the “Hemolytic (membranolytic) activity, in words” value (“Hemolytic … in words” below) in data set [3] (listed as M1 (35)) and in data set [3] (listed as cladoloside M1 (35)) were “strong hemolytics” and “most active compound”, respectively. In addition, the “Selectivity Index (SI), MDA-MB-231” value in data set [5] is recorded as 1.94.

For the molecule `C=C(C)CCC[C@]1(C)OC(=O)C23CC=C4[C@@H](CC[C@H]5C(C)(C)[C@@H](O[C@@H]6OC[C@@H](O[C@@H]7O[C@H](CO)[C@@H](O)[C@H](O[C@@H]8O[C@H](CO)[C@@H](O)[C@H](OC)[C@H]8O)[C@H]7O)[C@H](O)[C@H]6O[C@@H]6O[C@H](C)[C@@H](O[C@@H]7OC[C@@H](O)[C@H](O[C@@H]8O[C@H](CO)[C@@H](O)[C@H](O)[C@H]8O)[C@H]7O)[C@H](O)[C@H]6O)CC[C@]45C)[C@]2(C)CC(=O)[C@@H]31` (stereo partly drawn) [Cladoloside P2 (41), Cladoloside P2], the half-inhibitory concentration (IC50) in data set [1] (setting [7]) amounted to 10.6 ± 0.61 µM; in data set [2] (setting [8]), 11.1 ± 0.74 µM; in data set [4] (setting [9]), 16.3 ± 1.03 µM; in data set [5] (setting [10]) it was 6.92 ± 0.44 µM. Besides, the “Selectivity Index (SI), T-47D” value in data set [1] is recorded as 1.05. For the same molecule, the “Hemolytic … in words” value in data set [3] is “strong hemolytics”. In data set [3], the “ED50, Erythrocytes (hemolytic activity)” value was found to be 0.17 ± 0.02 µM. In addition, the “Selectivity Index (SI), MCF-7” value in data set [4] is given as 0.68. In addition, the “Selectivity Index (SI), MDA-MB-231” value in data set [5] was determined as 1.60.

Take `CO[C@@H]1[C@@H](O)[C@H](O[C@@H]2[C@@H](O)[C@H](O[C@H]3[C@H](O)[C@@H](O)[C@H](O[C@H]4[C@H](O[C@H]5CC[C@]6(C)C7=CCC89C(=O)O[C@@](C)([C@@H](CCC(C)C)OC(C)=O)[C@H]8[C@@H](OC(C)=O)C[C@@]9(C)[C@@H]7CC[C@H]6C5(C)C)OC[C@@H](O[C@@H]5OC[C@@H](O)[C@H](O)[C@H]5O)[C@@H]4O)O[C@@H]3C)OC[C@H]2O)O[C@H](COS(=O)(=O)O)[C@H]1O` (stereo partly drawn) [Cladoloside S1 (2), 3β-O-{6-O-sodium sulfate-3-O-methyl-β-D-glucopyranosyl-(1→3)-β-D-xylopyranosyl-(1→4)-β-D-quinovopyranosyl-(1→2)-[(1→4)-β-D-xylopyranosyl]-β-D-xylopyranosyl}-16S,22R-diacetoxyholost-9-en]: the IC50 was more than 20 µM in data set [1] (Homo sapiens, T47D, read-out: Cytotoxicity, IC50, T-47D); more than 20 µM in data set [6]; more than 20 µM in data set [4] (Homo sapiens, MCF7, read-out: Cytotoxicity, IC50, MCF-7); more than 20 µM in data set [5] (Homo sapiens, MDA-MB-231, read-out: Cytotoxicity, IC50, MDA-MB-231). Also, the “Hemolytic … in words” value in data set [3] is given as “moderately active”. For the same molecule, the “ED50, Erythrocytes (hemolytic activity)” value in data set [3] is 4.78 ± 0.30 µM.

On to `CO[C@@H]1[C@@H](O)[C@H](O[C@@H]2[C@@H](O)[C@H](O[C@@H]3CO[C@@H](O[C@H]4CC[C@]5(C)C6=CCC78C(=O)O[C@@](C)([C@@H](CCC(C)C)OC(C)=O)[C@H]7[C@@H](OC(C)=O)C[C@@]8(C)[C@@H]6CC[C@H]5C4(C)C)[C@H](O[C@@H]4O[C@H](C)[C@@H](O[C@@H]5OC[C@@H](O)[C@H](O[C@@H]6O[C@H](CO)[C@@H](O)[C@H](OS(=O)(=O)O)[C@H]6O)[C@H]5O)[C@H](O)[C@H]4O)[C@H]3O)O[C@H](CO)[C@H]2O)O[C@H](CO)[C@H]1O` (stereo partly drawn) [Cladoloside T1 (4), 3β-O-{3-O-sodium sulfate-β-D-glucopyranosyl-(1→3)-β-D-xylopyranosyl-(1→4)-β-D-quinovopyranosyl-(1→2)-[3-O-methyl-β-D-glucopyranosyl-(1→3)-β-D-glucopyranosyl-(1→4)]-β-D-xylopyranosyl}-16S,22R-diacetoxyholost-9-en], for which the 50% inhibitory concentration (IC50) in data set [1] was determined as 7.41 ± 0.69 µM; in data set [2], 8.41 ± 0.4 µM; in data set [4] it was 7.78 ± 0.62 µM; in data set [5], 2.94 ± 0.21 µM. The “ED50, Erythrocytes (hemolytic activity)” value in data set [3] is 0.12 µM and 0.12 ± 0.02 µM.

With `C=C(C)CC[C@@H](OC(C)=O)[C@]1(C)OC(=O)C23CC=C4[C@@H](CC[C@H]5C(C)(C)[C@@H](O[C@@H]6OC[C@@H](O[C@@H]7O[C@H](CO)[C@@H](O)[C@H](O[C@@H]8O[C@H](CO)[C@@H](O)[C@H](OC)[C@H]8O)[C@H]7O)[C@H](O)[C@H]6O[C@@H]6O[C@H](C)[C@@H](O[C@@H]7OC[C@@H](O)[C@H](O[C@@H]8O[C@H](CO)[C@@H](O)[C@H](OS(=O)(=O)O)[C@H]8O)[C@H]7O)[C@H](O)[C@H]6O)CC[C@]45C)[C@]2(C)C[C@H](OC(C)=O)[C@@H]31` (stereo partly drawn) [Cladoloside T (3), 3β-O-{3-O-sodium sulfate-β-D-glucopyranosyl-(1→3)-β-D-xylopyranosyl-(1→4)-β-D-quinovopyranosyl-(1→2)-[3-O-methyl-β-D-glucopyranosyl-(1→3)-β-D-glucopyranosyl-(1→4)]-β-D-xylopyranosyl}-16S,22R-diacetoxyholosta-9,25-diene], the IC50 in data set [1] amounted to 8.21 ± 0.72 µM; in data set [2] it was 8.23 ± 0.52 µM; in data set [4], 8.99 ± 0.61 µM; in data set [5], 3.41 ± 0.33 µM. In data set [3], the “ED50, Erythrocytes (hemolytic activity)” value was 0.39 µM and 0.39 ± 0.03 µM.

As to `C=C(C)CC[C@@H](OC(C)=O)[C@]1(C)OC(=O)C23CC=C4[C@@H](CC[C@H]5C(C)(C)[C@@H](O[C@@H]6OC[C@@H](O[C@@H]7O[C@H](CO)[C@@H](O)[C@H](O)[C@H]7O)[C@H](O)[C@H]6O[C@@H]6O[C@H](C)[C@@H](O[C@@H]7OC[C@@H](O)[C@H](O[C@@H]8O[C@H](COS(=O)(=O)[O-])[C@@H](O)[C@H](OC)[C@H]8O)[C@H]7O)[C@H](O)[C@H]6O)CC[C@]45C)[C@]2(C)C[C@H](OC(C)=O)[C@@H]31.[Na+]` (stereo partly drawn) [I2 (29), cladoloside I2], the 50% inhibitory concentration (IC50) in data set [1], in data set [2], in data set [4] and in data set [5] was more than 20 µM in each case. The “ED50, Erythrocytes (hemolytic activity)” value in data set [3] worked out at 4.24 ± 0.31 µM; in data set [3] (listed as cladoloside I2 (29)), 4.24 µM.

On to cladoloside C [Cladoloside C (13)], for which the IC50 in data set [1] (setting [7]) was 12.4 ± 0.66 µM; in data set [2] (setting [8]), more than 20 µM; in data set [4] (setting [9]), more than 20 µM; in data set [5] (setting [10]) it was 13 ± 0.8 µM. For the same molecule, the “Selectivity Index (SI), T-47D” value in data set [1] is recorded as more than 1.61. Also, the “Hemolytic … in words” value in data set [3] was “high activity”. The “ED50, Erythrocytes (hemolytic activity)” value in data set [3] (listed as C (13)) came out at 0.44 ± 0.05 µM; in data set [3] (listed as cladoloside C (13)), 0.44 µM. In data set [5], the “Selectivity Index (SI), MDA-MB-231” value is listed as more than 1.54.

Turning to cucumarioside A0-1 [reference compound], the IC50 is 8.46 ± 0.53 µM in data set [1] (setting [7]), 7.51 ± 0.63 µM in data set [2] (setting [8]), 11.3 ± 1 µM in data set [4] (setting [9]) and 3.53 ± 0.54 µM in data set [5] (setting [10]). In addition, in data set [1], the “Selectivity Index (SI), T-47D” value stood at 0.89. In addition, the “ED50, Erythrocytes (hemolytic activity)” value in data set [3] is 1.63 ± 0.21 µM. Besides, the “Selectivity Index (SI), MCF-7” value in data set [4] was determined as 0.66. For the same molecule, in data set [5], the “Selectivity Index (SI), MDA-MB-231” value came out at 2.13.

Usually IC50 stands for the concentration that gives 50% inhibition.

Values taken from article PMC12299463, “Cladolosides of Groups S and T: Triterpene Glycosides from the Sea Cucumber Cladolabes schmeltzii with Unique Sulfation; Human Breast Cancer Cytotoxicity and QSAR” (Marine Drugs, 2025).
